From paper PMC10518255, “A first-in-class pan-lysyl oxidase inhibitor impairs stromal remodeling and enhances gemcitabine response and survival in pancreatic cancer” (Nature Cancer, 2023) come the findings set out here.

One experiment deals with KPC PDAC tumors. The experiment in a line: SHG multiphoton imaging of fibrillar collagen in end-point KPC tumors. Conditions: for SHG peak signal intensity: 5 animals per group, 5 FOV per animal, single FOV values. Type of experiment: in vivo, mouse. As for the experimental part:
(§1) Fig. 4 PXS-5505 administered in a KPC in vivo survival study. a, Schematic of the KPC in vivo survival study. Presence of a primary tumor in KPC mice was confirmed by two independent researchers (positive diagnosis) before commencement of daily treatment (Tx) on one of four treatment arms as follows: vehicle, 0.9% saline; Gem, twice-weekly gemcitabine (100 mg kg^−1 i.p.); PXS-5505, daily PXS-5505 at 20 mg kg^−1 i.p.; and PXS-5505 + Gem, daily PXS-5505 at 20 mg kg^−1 i.p. + twice-weekly gemcitabine (100 mg kg^−1 i.p.). b, Table of median survival (since diagnosis/commencement of treatment) across the four treatment groups (n = 30 biologically independent animals (vehicle), n = 31 biologically independent animals (Gem), n = 36 biologically independent animals (PXS-5505), n = 46 biologically independent animals (PXS-5505 + Gem)). c, Kaplan–Meier curves for overall survival across treatment arms (n = 30 biologically independent animals (vehicle), n = 31 biologically independent animals (Gem), n = 36 biologically independent animals (PXS-5505), n = 46 biologically independent animals (PXS-5505 + Gem)). P values determined by log-rank (Mantel–Cox) test. d, Representative maximum intensity projections of SHG multiphoton imaging for tumors from each treatment group (n = 1 FOV taken from one biologically independent animal per group) at end point (scale bars, 100 μm) and quantification of SHG peak signal intensity (n = 5 biologically independent animals per group and five FOV per animal). Data are mean ± s.d. […] Quantification of metastases (n = 18 biologically independent animals (vehicle), n = 18 biologically independent animals (Gem), n = 17 biologically independent animals (PXS-5505), n = 15 biologically independent animals (PXS-5505 + Gem)). Data are mean ± s.d.
SHG imaging of fibrillar collagens was employed to analyze collagen density and organization as performed previously[28],[34],[58]. […] Intensity was recorded with a RLD HyD detector (440/20 nm). […] SHG signal intensities were measured using MATLAB (MathWorks) as described previously[28],[34],[58].

Experiment [1] has as its system Lysyl oxidase family activity in aorta. The experiment in a line: Lysyl oxidase family activity in aorta of KPC tumor bearing mice at end point, fluorometric activity assay. It counts as in vivo, mouse. Conditions: for Lysyl oxidase family activity measured in the aorta of KPC tumour bearing mice at endpoint (signal over noise): Extended Data 5A, fluorometric activity assay, noise measured with 300 µM ßAPN, individual animals. As for the experimental part: KPC mice were treated from the time at which palpable tumors were detected (typically 10 to 12 weeks of age) and continued until the study end point. Mice were treated daily with PXS-5505 (20 mg kg^−1 i.p.) or vehicle (0.9% saline) and twice weekly with gemcitabine (100 mg kg^−1 i.p.) or vehicle (0.9% saline).
Extended Data Fig. 5 PXS-5505 in combination with gemcitabine in vivo. a. […] Signal is defined as the enzyme activity in the aorta, while noise is measured in the presence of a high concentration (300 µM) BAPN to abolish any lysyl oxidase family activity. […] Data presented as mean values +/− SD b. […] Data presented as mean values +/− SD. c. FITC-dextran (molecular weight: 10 kDa) signal quantification from KPC tumor end point from each treatment group (vehicle n = 3 biologically independent animals, PXS-5505 n = 5 biologically independent animals, Gem n = 5 biologically independent animals, PXS-5505 + Gem n = 5 biologically independent animals). 4 ROIs taken per mouse. P-values determined by Welchs t-test. Data presented as mean values +/− SD. Scale bars = 100 μm d. Quantification of red birefringent (mature) collagen fibers from human PDXs at end point after 3 cycles of treatment, treated as indicated. […] Data presented as mean values +/− SD. Scale bars = 100 μm e. Quantification of bulk modulus (stiffness) by unconfined compression testing of end point human PDX tumors from each treatment group (vehicle n = 5 biologically independent animals, Gem n = 5 biologically independent animals, PXS-5505 n = 5 biologically independent animals, PXS-5505 + Gem n = 5 biologically independent animals) [individual tumors shown]). […] FITC-dextran (molecular weight 10 kDa) signal quantification from human PDXs from each treatment group (vehicle n = 4 biologically independent animals, PXS-5505 n = 5 biologically independent animals, Gem n = 5 biologically independent animals, PXS-5505 + Gem n = 5 biologically independent animals). […] P values determined by Welchs t-test. g. […] Quantification of green birefringent (nascent) collagen fibers from human PDXs at end point, treated as indicated. […]

For the next experiment, the system named is KPC mouse model of PDAC. The experiment in a line: Quantification of liver metastases (H&E), KPC survival study (Fig. 4g). It counts as in vivo. Conditions: for liver metastases/mm2: individual animals. As for the experimental part:
as §1
The 4-µm formalin-fixed paraffin-embedded (FFPE) sections were cut and stained for H&E following standard histopathology methodologies or stained for CK19 using the Bond RX H2(30) protocol detailed above. […] The total number of liver metastases were quantified and determined using QuPath[57].

Values joined by “and” are separate entries in the source; they are usually repeats but may differ in a detail not shown here. Identical values can stand only once.

Turning to `Cl.Cl.NC/C=C(\F)CS(=O)(=O)c1cccc2cccnc12.O` [PXS-5505, (Z)-3-fluoro-4-(quinolin-8-ylsulfonyl)but-2-en-1-amine dihydrochloride monohydrate], the “SHG peak signal intensity” value in the experiment on KPC PDAC tumors is 45.7826 and 42.6725 and 46.4759 and 51.7331 and 29.3681 and 51.0162 and 24.7531 and 11.1698 and 19.0235 and 45.4063 and 19.8592 and 24.5743 and 17.8792 and 16.4101 and 14.0868 and 27.3224 and 22.509 and 34.8879 and 24.4703 and 26.4774 and 34.2776 and 17.1388 and 29.5006 and 45.3832 and 44.8772. Also, the “Lysyl oxidase family activity measured in the aorta of KPC tumour bearing mice at endpoint (signal over noise)” value in experiment [1] was 1.144 and 1.3025 and 1.519 and 1.787 and 1.62 and 1.558. Moreover, in experiment [1] (KPC tumor bearing mice), the “lysyl oxidase family activity in the aorta at end point” value is “confirming lysyl oxidase family inhibition”. Besides, the “liver metastases/mm2” value with KPC mouse model of PDAC is 0.001562 /mm2 and 0.001978 /mm2 and 0.00288 /mm2 and 0.001774 /mm2 and 0.002087 /mm2 and 0.001249 /mm2 and 0.00165 /mm2 and 0.00324 /mm2 and 0.001709 /mm2 and 0.002256 /mm2 and 0.001847 /mm2 and 0.001474 /mm2 and 0.001116 /mm2 and 0.0009543 /mm2 and 0.001461 /mm2 and 0.00148 /mm2 and 0.001125 /mm2.

Regarding `Nc1ccn([C@@H]2O[C@H](CO)[C@@H](O)C2(F)F)c(=O)n1` [Gem, gemcitabine], in the experiment on KPC PDAC tumors, the “fibrillar collagen / stromal content by SHG” value is given as “significantly increased stromal content”; the “SHG peak signal intensity” value is 116.837 and 121.251 and 74.7808 and 58.0704 and 58.6614 and 88.5172 and 66.9647 and 76.4458 and 85.1379 and 61.658 and 86.6036 and 56.3648 and 49.2982 and 91.4138 and 56.7061 and 67.2683 and 73.645 and 75.3134 and 83.1972 and 82.1163 and 64.6996 and 72.2796 and 40.261 and 45.2578 and 54.2825. Moreover, the “Lysyl oxidase family activity measured in the aorta of KPC tumour bearing mice at endpoint (signal over noise)” value in experiment [1] was 2.059 and 2.616 and 2.089 and 2.043 and 2.04 and 2.065 and 2.364. The “metastatic foci / metastatic burden in the liver” value in the experiment on KPC mouse model of PDAC (compared to vehicle) was “did not reduce the number of metastatic foci”. In addition, in the experiment with KPC mouse model of PDAC, the “liver metastases/mm2” value is 0.000998 /mm2 and 0.00153 /mm2 and 0.000533 /mm2 and 0.002596 /mm2 and 0.002539 /mm2 and 0.002266 /mm2 and 0.001775 /mm2 and 0.001805 /mm2 and 0.001681 /mm2 and 0.002472 /mm2 and 0.001465 /mm2 and 0.003681 /mm2 and 0.001157 /mm2 and 0.004279 /mm2 and 0.0007747 /mm2 and 0.000926 /mm2 and 0.002131 /mm2 and 0.001372 /mm2.
